Data set [1] deals with T1, [3H]-emopamil binding site (Cavia porcellus, UniProt Q60490).
T1 construct: Guinea pig liver membranes: 40 mg/mL original wet weight; from tissue; host or cells: guinea pig liver membranes
T1 sequence (Q60490 1-229): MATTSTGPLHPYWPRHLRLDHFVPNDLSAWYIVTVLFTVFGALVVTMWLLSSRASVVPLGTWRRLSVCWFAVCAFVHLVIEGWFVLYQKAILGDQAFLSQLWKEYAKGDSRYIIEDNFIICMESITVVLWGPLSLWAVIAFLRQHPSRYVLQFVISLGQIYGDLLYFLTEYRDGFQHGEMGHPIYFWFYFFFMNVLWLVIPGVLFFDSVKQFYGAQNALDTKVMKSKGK
Put plainly: (−)-3H-Emopamil binding to guinea pig liver membranes. Conditions: 0.96 nM (−)-3H-emopamil, 60 minutes at 37° C. As for the experimental part: -^3H-Emopamil Binding to Guinea Pig Liver Membranes
The method of (−)-^3H-emopamil binding was a modification of Zech, C., Staudinger R., Mühlbacher, J. and Glossmann, H. Novel sites for phenylalkylamines: characterization of a sodium-sensitive drug receptor with (−)-^3H-emopamil. Eur. J. Pharm. 208: 119-130, 1991.
The reaction mixture contained:
Assay buffer: 10 mM Tris-HCl, 0.1 mM phenylmethylsulfonyl fluoride (PMSF), 0.2% bovine serum albumin (BSA), pH 7.4 at 4° C.
Radioligand: 0.96 nM (−)-^3H-emopamil (Amersham).
Guinea pig liver membranes: 40 mg/mL original wet weight.
This mixture was incubated for 60 minutes at 37° C. The incubation was terminated by filtering with a Brandel Cell Harvester over Whatman GF/C filters that had been soaked for at least 120 minutes in 0.3% polyethylenimine (PEI) and washed three times with 5 mL of wash buffer containing 10 mM Tris-HCl, 10 mM MgCl2, 0.2% BSA, pH 7.4 at 25° C. Specific binding was defined with 10 μM emopamil.
Guinea-pig Liver Membrane Preparation
Male guinea pigs were sacrificed by CO2 asphyxiation with dry ice. The livers were quickly excised and weighed and rinsed in membrane preparation buffer containing 10 mM Hepes, 1 mM Tris base-EDTA, 250 mM sucrose, pH 7.4. The livers were then minced, homogenized in 10 times volume with a motor driven Teflon-glass homogenizer with three strokes on ice. […]

The target in data set [2] is L-type voltage sensitive calcium channels (3H-D888 binding site). Put plainly: 3H-D-888 binding to rat brain cortical membranes. The following applies: 1 nM 3H-D888, rat cortical membranes, 60 minutes at 25° C.; in vitro selectivity test. As for the experimental part: -^3H-D-888 Binding to Rat Brain Cortical Membranes
The method of ^3H-D-888 binding was a modification of Reynolds, I. J., Snowman, A. M. and Synder, S. H. (−)-[^3H] Desmethoxyverapamil labels multiple calcium channel modular receptors in brain and skeletal muscle membranes: differentiation by temperature and dihydropyridines. J. Pharmacol. Exp. Ther. 237: no.3, 731-738, 1986.
The assay tubes contained the following: assay buffer: 50 mM Hepes, 0.2% BSA, pH 7.4 radioligand: 1ηM ^3H-D888 (Amersham) rat cortical membranes: 6 mg/ml original wet weight
This mixture was incubated for 60 minutes at 25° C. The assay was terminated by filtering with a Brandel Cell Harvester over Whatman GF/C filters that had been soaked for at least 120 minutes in 0.3% polyethylenamine (PEI) and washed three times with 5 mL of wash buffer containing 20 mM Hepes, 20 mM MgCl2, pH 7.4. Specific binding was measured with 10 μM methoxyverapamil (D-600). This assay was used to determine in vitro selectivity of compounds vs. L-type voltage sensitive calcium channels, i.e high affinity for the ^3H-D888 binding site would show a lack of selectivity.
Rat Brain Cortical Membrane Preparation
Male Sprague-Dawley Rats were sacrificed by decapitation and the brains were quickly excised. The cerebellum and brain stem were removed and discarded; and the rest of the brain was rinsed in 320 mM sucrose. […]

Where a name gives a salt, the structure may show the parent alone.

The melting point is the temperature of the solid-liquid transition. In the case of `CN1CCCN(C2CCSc3ccccc32)CC1` (centres unmarked) (as salt: maleate) [Example 1, 1 -Methyl-4-(3,4-dihydro-2H-benzothiopyran-4-yl)homopiperazine], the melting point fell in the range of 117 to 118 °C.
For `CN1CCCN([C@H]2CCSc3ccccc32)CC1` (as salt: hydrochloride) [Example 5, S(+) 1-Methyl-4-(3,4-dihydro-2H-benzothiopyran-4yl)homopiperazine], the melting point fell in the range of 208 to 209 °C.
The same measure, in the same setting: as for `CC(C)CN1CCCN(C2CCSc3ccccc32)CC1` (centres unmarked) (as salt: maleate) [Example 7, 1-Isobutyl-4-(3,4-dihydro-2H-benzothiopyran-4-yl)homopiperazine], the figure is 148.2 to 148.6 °C.
In general, IC50 refers to the concentration at which inhibition is half-maximal. For the molecule `CN1CCCN([C@H]2CCSc3ccccc32)CC1` [Example 5, S(+) 1-Methyl-4-(3,4-dihydro-2H-benzothiopyran-4yl)homopiperazine], the results for the IC50 in data set [1] and in data set [2] were 0.009 µM and roughly 15 µM, respectively.

Source of the values: patent US6407093B1, “1,4-Diazacycloheptane derivatives for the treatment of neurological disorders” (Astrazeneca UK Limited, priority 1998, dated 2002).
